Test results taken from patent publication US4198512A, “1-Oxo-1,2-dihydroisoquinoline derivatives” (Yamanouchi Pharmaceutical Co., Ltd., priority 1977, dated 1980).

How the values were obtained:
[1] = Whittle's method, writhing (acetic acid); format: in vivo, Male ICR-Mice; conditions: 50 mg/kg P.O., mice; 0.6% acetic acid i.p.
Experimental: (§1) Male ICR-Mice (weighting 25-35 g.), one group being 12 mice, fasted overnight were used in this test. The sample was orally administered, and 20 minutes after, 5 ml./Kg. of 0.4% Evance blue was injected intravenously and 10 minutes thereafter, 10 ml./Kg. of 0.6% acetic acid was injected intraperitoneally. The number of writhings after 20 minutes following the administration of acetic acid was recorded and after an additional 10 minutes, the mice were killed by dislocation of the neck, the dye leaked in the abdominal cavity was washed out with 5 ml. of 0.9% saline to make the total amount 10 ml., and thereafter furs, blood corpuscles, etc., intermingled were removed by centrifugal separation at 3,000 r.p.m. for 5 minutes. Furthermore, to prevent turbidity caused by protein, 0.1 ml. of an aqueous 0.1 normal sodium hydroxide was added and then the absorbance at 590 nm was measured. The inhibition ratio of the sample administered rat groups to control groups was calculated.

[2] = Carrageenin-induced edema; format: in vivo, Male Wister rats; conditions: oral, 1 h before carrageenin, rat hind paw, 3 h
Experimental: (a) Carrageenin-induced edema
Male Wister rats (weighing 130-170 g.), one group being 6 rats, fasted overnight were used. According to Winter's method [Proc. Soc. Exp. Biol. Med., 111,544 (1962)], 0.1 ml. of 1% carrageenin [Iwai Kagaku Yakuhin K.K. Seakem] suspension in 0.9% saline was injected into the planter tissue of the left hind paw. After 3 hours, each rat was sacrificed by chloroform and the hind paw was cut and weighed immediately. By using the value obtained by subtracting the weight of the untreated hind paw from the weight of the hind paw having injected therein the carrageenin as the weight of edema, the inhibitory ratio of the sample administered rat groups to control groups was calculated. The sample was orally administered before one hour of the injection of Carrageenin.
In addition, the test samples used in the aforesaid tests (a) and (b) were prepared by suspending the test compounds in an aqueous 0.5% methyl cellulose solutions.

[3] = 50 mg/kg
Experimental: as §1

| SMILES | Inhibition (%) Writhing [1] [%] | Inhibition (Carrageenin-induced edema) ([2]; 50 mg/kg) [%] | Inhibition (Carrageenin-induced edema) ([2]; 100 mg/kg) [%] | Inhibition (%) Permeability [3] [%] |
| --- | --- | --- | --- | --- |
| Cn1c(S(C)(=O)=O)cc2ccccc2c1=O [Ex. 5, 2-methyl-3-methylsulfonyl-1-oxo-1,2-dihydroisoquinoline] | 45.8 | 50.7 | 68.1 | 47.1 |
| Cn1c([S+](C)[O-])cc2ccccc2c1=O (centres unmarked) [Ex. 4, 2-methyl-3-methylsulfinyl-1-oxo-1,2-dihydroisoquinoline] | 39.7 | 55.8 | 68.2 | 42.8 |
| CCn1c(SC)cc2ccccc2c1=O [Ex. 2, 2-ethyl-3-methylthio-1-oxo-1,2-dihydroisoquinoline] |  | 38.5 |  |  |
| CSc1cc2ccccc2c(=O)n1C [Ex. 1, 2-methyl-3-methylthio-1-oxo-1,2-dihydroisoquinoline] |  |  | 57.3 |  |
| Cc1c(N(C)C)c(=O)n(-c2ccccc2)n1C [Aminopyrine, reference compound] | 58.1 |  |  | 41.7 |
| CCCCC1C(=O)N(c2ccccc2)N(c2ccccc2)C1=O [Phenyl butazone, reference compound] |  | 44.5 | 51.2 |  |
